Source: ChEMBL document CHEMBL1201862, “PubChem BioAssay data set” (2004)
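1) Cells in 96-well plates. 2) Compound, 48 h, 5 concentrations. 3) Linear interpolation between surrounding doses. 4) Unreached endpoint = highest concentration. The concentration for 50% growth inhibition is given as GI50.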 Activity calls are given as the source filed them. Cut-off read from the data, not from the text of the source: active = GI50 up to about 1.1 µM and inactive = higher.

Key:
Assay in all cases: NCI tumour cell line growth inhibition, 48 h
786-0 = system: 786-0
MOLT-4 = system: MOLT-4
HOP-62 = system: HOP-62
COLO 205 = system: COLO 205
SF-539 = system: SF-539
SW-620 = system: SW-620
SK-OV-3 = system: SK-OV-3
DU-145 = system: DU-145
U-251 = system: U-251
M14 = system: M14
NCI-H522 = system: NCI-H522
HL-60 = system: HL-60
NCI-H460 = system: NCI-H460
LOX IMVI = system: LOX IMVI
SN12C = system: SN12C
MDA-N = system: MDA-N
K562 = system: K562
A498 = system: A498
RXF 393 = system: RXF 393
MCF7 = system: MCF7
SNB-75 = system: SNB-75
BT-549 = system: BT-549
HT-29 = system: HT-29
HCC 2998 = system: HCC 2998
KM12 = system: KM12
MDA-MB-231 = system: MDA-MB-231
HCT-116 = system: HCT-116
RPMI-8226 = system: RPMI-8226
HOP-92 = system: HOP-92
A549 = system: A549
SK-MEL-28 = system: SK-MEL-28
IGROV-1 = system: IGROV-1
SF-268 = system: SF-268
SK-MEL-5 = system: SK-MEL-5
T47D = system: T47D
OVCAR-4 = system: OVCAR-4
OVCAR-8 = system: OVCAR-8
Malme-3M = system: Malme-3M
EKVX = system: EKVX
SNB-19 = system: SNB-19
UACC-257 = system: UACC-257
SK-MEL-2 = system: SK-MEL-2
PC-3 = system: PC-3
SF-295 = system: SF-295
TK-10 = system: TK-10
Hs-578T = system: Hs-578T
UO-31 = system: UO-31
NCI-H226 = system: NCI-H226
SR = system: SR
ACHN = system: ACHN
OVCAR-3 = system: OVCAR-3
CCRF-CEM = system: CCRF-CEM
CAKI-1 = system: CAKI-1
HCT-15 = system: HCT-15
UACC-62 = system: UACC-62
NCI/ADR-RES = system: NCI/ADR-RES
MDA-MB-435 = system: MDA-MB-435
NCI-H23 = system: NCI-H23

## COc1cc2c(cc1OC)C/C(=N\O)c1cc(OC)c(OC)cc1/C=C\2
786-0
  GI50: 5.52 µM (inactive)
MOLT-4
  GI50: 6.41 µM (inactive)
HOP-62
  GI50: 2.82 µM (inactive)
COLO 205
  GI50: 4.91 µM (inactive)
SF-539
  GI50: 4.22 µM (inactive)
SW-620
  GI50: 3.48 µM (inactive)
SK-OV-3
  GI50: 13.1 µM (inactive)
DU-145
  GI50: 4.49 µM (inactive)
U-251
  GI50: 4.66 µM (inactive)
M14
  GI50: 3.47 µM (inactive)
NCI-H522
  GI50: 1.01 µM (active)
HL-60
  GI50: 3.03 µM (inactive)
NCI-H460
  GI50: 3.15 µM (inactive)
LOX IMVI
  GI50: 6.4 µM (inactive)
SN12C
  GI50: 10.4 µM (inactive)
MDA-N
  GI50: 1.42 µM (inactive)
K562
  GI50: 4.86 µM (inactive)
A498
  GI50: 21.2 µM (inactive)
RXF 393
  GI50: 5.25 µM (inactive)
MCF7
  GI50: 5.27 µM (inactive)
SNB-75
  GI50: 5.31 µM (inactive)
BT-549
  GI50: 28.7 µM (inactive)
HT-29
  GI50: 3.67 µM (inactive)
HCC 2998
  GI50: 2.95 µM (inactive)
KM12
  GI50: 5.2 µM (inactive)
MDA-MB-231
  GI50: 5.87 µM (inactive)
HCT-116
  GI50: 3.82 µM (inactive)
RPMI-8226
  GI50: 3.82 µM (inactive)
HOP-92
  GI50: 43.8 µM (inactive)
A549
  GI50: 8.38 µM (inactive)
SK-MEL-28
  GI50: 4.6 µM (inactive)
IGROV-1
  GI50: 3.37 µM (inactive)
SF-268
  GI50: 6.24 µM (inactive)
SK-MEL-5
  GI50: 1.95 µM (inactive)
T47D
  GI50: 10.6 µM (inactive)
OVCAR-4
  GI50: 55.5 µM (inactive)
OVCAR-8
  GI50: 10.4 µM (inactive)
Malme-3M
  GI50: 1.48 µM (inactive)
EKVX
  GI50: 10.7 µM (inactive)
SNB-19
  GI50: 7.08 µM (inactive)
UACC-257
  GI50: 10.4 µM (inactive)
SK-MEL-2
  GI50: 3.44 µM (inactive)
PC-3
  GI50: 10.2 µM (inactive)
SF-295
  GI50: 3.74 µM (inactive)
TK-10
  GI50: 18.8 µM (inactive)
Hs-578T
  GI50: 2.12 µM (inactive)
UO-31
  GI50: 15.9 µM (inactive)
NCI-H226
  GI50: 5.56 µM (inactive)
SR
  GI50: 1.66 µM (inactive)
ACHN
  GI50: 12.9 µM (inactive)
OVCAR-3
  GI50: 3.67 µM (inactive)
CCRF-CEM
  GI50: 13.1 µM (inactive)
CAKI-1
  GI50: 3.61 µM (inactive)
HCT-15
  GI50: 5.31 µM
UACC-62
  GI50: 6.81 µM (inactive)
NCI/ADR-RES
  GI50: 5.55 µM (inactive)
MDA-MB-435
  GI50: 0.822 µM (active)
NCI-H23
  GI50: 14.2 µM (inactive)
